Reference: patent US20150150892A1, “METHODS AND PRODUCTS RELATED TO LUNG CANCER” (Massachusetts Institute of Technology, priority 2012, published 2015)

Legend:
KP and KP^M cells = experiment: Trypan blue quantification of cell death; format: cell-based, mouse; settings: 24 hours, indicated concentrations
Protocol: FIG. 1. Bortezomib inhibits NF-κB signaling and induces apoptosis in murine lung adenocarcinoma cell lines. (1A) reduction of nuclear p65 level by bortezomib. Two KP (KrasLSL-G12D/wt;p53flox/flox) cell lines (KP1 and KP2) were treated with 5 nM bortezomib (BZ) or vehicle control (ctrl) for 24 hours. Nuclear (N) and cytoplasmic (C) fractions of protein lysates were immunoblotted with the indicated antibodies. NEMO and Parp serve as cytoplasmic and nuclear loading controls, respectively. (1B) quantitative PCR analysis of a subset of NF-κB target genes in 5 nM bortezomib (BZ)-treated KP cells at the indicated time points. Vehicle control is set to 1. (1C) apoptosis in KP and KP^M (KrasLSL-G12D/wt;p53R127H/−) cells induced by bortezomib. Cells were pre-treated with 5 nM bortezomib for 24 hours, and protein lysates were immunoblotted with CC3 and tubulin antibodies. (1D) quantification of cell death in bortezomib-treated cells. Cells were treated with the indicated concentrations of bortezomib for 24 hours, and dead cells were quantified by Trypan blue staining. Error bars are SD (n=3).
As the NF-κB pathway is known to inhibit apoptosis through its regulation of antiapoptotic genes, we next addressed the cytotoxicity of bortezomib in vitro (6).

[1] = system: NF-κB target genes in H2122 and H2009 cell lines; experiment: QPCR of NF-κB target genes in human NSCLC cell lines; format: cell-based; settings: 10 nM Bortezomib, 24 hours
Protocol: FIG. 8: Bortezomib inhibits NF-κB signaling in human NSCLC cells. H2122 (KRASG12C;TP53c176F/Q16L) (8A) and H2009 (KRASG12A;TP53R273L) (8B) cell lines were treated with vehicle control or 10 nM Bortezomib for 24 hours. NF-κB target gene expression was measured by QPCR. Error bars are s.d. (n=3). N.D. denotes not detectable. Mutation information is from the Sanger COSMIC database.
(§1) RNA was purified using TRIzol (Invitrogen), according to the manufacturer's instructions. One microgram of RNA was reverse transcribed using the High-Capacity cDNA Reverse Transcription Kit (Applied Biosystems). Real-time PCR (quantitative PCR) amplification was performed using Taqman probes (Applied Biosystems). Data were normalized to the Gapdh (mouse) or GAPDH (human) levels.

KP and KP^M cell lines = experiment: Cell viability assay (Cell Titer Aqueous Kit); format: cell-based, mouse; settings: increasing doses, 24 hours, KP and KP^M vs 3TZ and LKR13 cells
Protocol: FIG. 2: Bortezomib sensitivity correlates with basal NF-κB activity in KP lung adenocarcinoma cell lines. […] 3TZ, diamond; LKR13, triangle; KP, solid lines; KPM, dashed lines. Error bars are SD (n=3). (2B) lung cancer cell lines with high basal NF-κB activity were sensitive to bortezomib. NF-κB p65 DNA-binding activity was determined by ELISA from nuclear extracts of KP cell lines and LKR13 cells (set as 1). Relative viability was measured after 5 nM bortezomib treatment, as in 2A. FIG. 17: Bay-117082 induces cell death In KP cells. […] (17B) Bay-117082 induces apoptosis in KP cells. Cells were treated with 10IJM Bay-117082 for 48 hours. […] Cell culture conditions were as described recently (30).

KP lung tumors = experiment: CC3 immunohistochemistry in KP lung tumors; format: in vivo, mouse
Protocol: FIG. 4: Bortezomib induces apoptosis in KP lung tumors. (4A and 4B) H&E and CC3 immunohistochemistry staining (×200) in vehicle control- and bortezomib-treated KP (4A) and K (4B) lung tumors. (4C and 4D) quantification of CC3-positive cells in bortezomib-treated KP (4C) and K (4D) lung tumors at indicated time points. “0 hour” represents vehicle control-treated tumors. Error bars are SD (n>10 for each time point).
FIG. 5: Bortezomib increases survival in KP mice. (5A and 5B) Kaplan-Meier survival curve of vehicle control and bortezomib-treated KP (5A) and K (5B) mice. Arrows indicate weekly 1 mg/kg bortezomib regimen. (5C) quantification of lung tumor volume of control- and bortezomib-treated KP mice. From 10 weeks after Adeno-Cre infection, lungs were imaged by microCT to measure individual tumor volumes (n=4). Data points represent means of fold change and SD relative to 10 weeks (set to 1). Arrows indicate bortezomib injection. D, CC3 staining (×200) in lung tumors receiving 3 doses of control (“C”) and 1 final dose of bortezomib (“B,” left) or 4 doses of bortezomib (right). Tumors were harvested 48 hours after the last treatment (n=4).
FIG. 18: Bay-117082 induces apoptosis in KP lung tumors. (18A), H&E and cleaved caspase 3 (CC3) immunohistochemistry staining (200×) in vehicle control and Bay-117082 treated KP lung tumors (10 mg/kg, 48 hrs). (18B) Quantification of CC3 positive cells. Error bars are s.d. (p<0.05).
Mice were sacrificed by carbon dioxide asphyxiation. Lungs were inflated with 4% formalin (neutral buffered formalin), fixed overnight, and transferred to 70% ethanol. Lung lobes were embedded in paraffin and sectioned at 4 μm and stained with H&E for tumor pathologic study. For staining with anti-CC3 antibodies (#9661; Cell Signaling), lung tumor sections were dewaxed, rehydrated, and subjected to high-temperature antigen retrieval—10 minutes of boiling in a pressure cooker in 0.01 M citrate buffer, pH 6.0. […] The number of positive cells per tumor area was quantified using Bioquant software from >10 tumors in ≧3 mice per group (2).

KP mice = experiment: Kaplan-Meier survival of KP mice; format: in vivo, mouse; settings: KP mice, bortezomib 1 mg/kg once a week for 4 weeks from 8 weeks after Adeno-Cre; control 76.8±10.6 days; P=0.001
Protocol: (5A and 5B) Kaplan-Meier survival curve of vehicle control and bortezomib-treated KP (5A) and K (5B) mice. Arrows indicate weekly 1 mg/kg bortezomib regimen. […] Arrows indicate bortezomib injection.
To initiate lung tumors, cohorts of K or KP mice of 129svJae background were infected with 2.5×10^7 plaque-forming units of Adeno-Cre (University of Iowa) by intranasal inhalation, as described previously (2, 28). Mice were given bortezomib (LC Labs) in PBS [0.5% dimethylsulfoxide (DMSO)] at 1 mg/kg body weight i.v., as indicated.
To analyze the long-term effects of bortezomib therapy, we investigated whether a 4-dose regimen of bortezomib (19) could prolong survival of tumor-bearing mice. Using a cohort of KP mice, we treated tumor-bearing animals 8 weeks after Adeno-Cre infection with bortezomib once a week for 4 weeks (FIG. 10A).

KrasLSL-G12D/wt mice = experiment: Kaplan-Meier survival of K mice; format: in vivo, mouse; settings: KrasLSL-G12D/wt cohort, weekly 1 mg/kg bortezomib; P=0.36
Protocol: To initiate lung tumors, cohorts of K or KP mice of 129svJae background were infected with 2.5×10^7 plaque-forming units of Adeno-Cre (University of Iowa) by intranasal inhalation, as described previously (2, 28). Mice were given bortezomib (LC Labs) in PBS [0.5% dimethylsulfoxide (DMSO)] at 1 mg/kg body weight i.v., as indicated. Bay-117082 (CalBiochem) was dissolved in DMSO, diluted in PBS as a fine suspension, and injected at 10 mg/kg body weight i.p., as indicated.
Using a cohort of KP mice, we treated tumor-bearing animals 8 weeks after Adeno-Cre infection with bortezomib once a week for 4 weeks (FIG. 10A).

[2] = system: NF-κB target genes regulating apoptosis and survival; experiment: QPCR of NF-κB targets in Bortezomib-resistant KP cell line; format: cell-based, mouse; settings: 5 nM Bortezomib, 24 hours
Protocol: A representative resistant cell line was treated with control or 5 nM Bortezomib for 24 hours. Gene expression level was measured by QPCR and normalized to control-treated cells (set to 1). Error bars are s.d. (n=3).
as §1

[3] = system: advanced NSCLC patients previously treated with chemotherapy; settings: cited from earlier work

SMILES: CC(C)C[C@H](NC(=O)[C@H](Cc1ccccc1)NC(=O)c1cnccn1)B(O)O [bortezomib, N-(2-pyrazine) carbonyl-L-phenylalanine-L-leucine boronic acid]
- cell death by Trypan blue counting (KP and KP^M cells): caused cell death in a dose-dependent manner
- expression of NF-κB target genes MYC, BCL2, XIAP [1]: downregulated
- sensitivity in cell viability dose-response (KP and KP^M cell lines): higher sensitivity
- CC3 staining after a final dose in pretreated tumors (KP lung tumors; KP mice, 3 previous doses of bortezomib, sacrificed 48 hours after final dose): no longer demonstrated significant CC3 staining
- number of apoptotic (CC3) cells (KP lung tumors; KP tumors, 48 hours after a single dose): increase in the number of apoptotic cells
- time course of CC3+ cell number (KP lung tumors; KP tumors, single dose, time-course): peaked at 24 and 48 hours post treatment and diminished at 96 hours
- survival (KP mice): 104.2 ± 19.8 days
- survival (KrasLSL-G12D/wt mice): no improvement in survival
- NF-κB target genes regulating apoptosis and survival [2]: robust downregulation
- effects in Phase II clinical trials [3]: modest effects
